We go through five compounds from BindingDB's records for doi:10.1021/jm9703911 (Allergan, 1997).

pKd: −log10 of the molar value.

Test [1] deals with T1, Retinoic acid receptor alpha (Homo sapiens, UniProt P10276).
T1 sequence (P10276 whole entry): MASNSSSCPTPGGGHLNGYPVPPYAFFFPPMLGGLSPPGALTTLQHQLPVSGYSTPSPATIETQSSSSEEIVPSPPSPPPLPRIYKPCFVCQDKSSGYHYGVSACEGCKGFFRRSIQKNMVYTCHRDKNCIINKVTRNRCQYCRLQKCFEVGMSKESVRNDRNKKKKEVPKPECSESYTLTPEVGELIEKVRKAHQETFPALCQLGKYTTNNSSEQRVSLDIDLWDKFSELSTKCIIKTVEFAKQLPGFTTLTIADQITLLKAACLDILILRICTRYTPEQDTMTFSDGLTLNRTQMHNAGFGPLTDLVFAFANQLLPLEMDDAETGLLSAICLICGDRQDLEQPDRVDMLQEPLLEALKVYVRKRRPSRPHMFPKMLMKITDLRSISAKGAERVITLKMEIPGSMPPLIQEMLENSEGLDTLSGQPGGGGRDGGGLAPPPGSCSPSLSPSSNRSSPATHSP
Briefly: Inhibition of [3H]ATRA binding to baculovirus expressed RAR alpha receptor.

For test [2], the target named is T2, Retinoic acid receptor gamma (Homo sapiens, UniProt P13631).
T2 sequence (P13631 whole entry): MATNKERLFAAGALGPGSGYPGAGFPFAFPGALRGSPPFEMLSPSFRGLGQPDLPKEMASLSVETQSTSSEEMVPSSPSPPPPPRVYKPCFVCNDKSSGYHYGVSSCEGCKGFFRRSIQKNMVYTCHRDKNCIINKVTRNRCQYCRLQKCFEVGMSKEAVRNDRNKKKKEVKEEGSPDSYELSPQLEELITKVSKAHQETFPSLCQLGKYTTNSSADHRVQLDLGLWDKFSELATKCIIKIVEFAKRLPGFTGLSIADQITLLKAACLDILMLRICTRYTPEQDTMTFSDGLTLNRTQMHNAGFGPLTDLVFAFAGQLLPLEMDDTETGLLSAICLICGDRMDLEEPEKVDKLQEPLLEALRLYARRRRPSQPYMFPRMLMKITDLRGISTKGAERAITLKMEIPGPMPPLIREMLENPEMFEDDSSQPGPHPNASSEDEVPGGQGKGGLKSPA
In words: Inhibition of [3H]ATRA binding to baculovirus expressed RAR gamma receptor.

Test [3] has as its target T3, Retinoic acid receptor beta (Homo sapiens, UniProt P10826).
T3 sequence (P10826 whole entry): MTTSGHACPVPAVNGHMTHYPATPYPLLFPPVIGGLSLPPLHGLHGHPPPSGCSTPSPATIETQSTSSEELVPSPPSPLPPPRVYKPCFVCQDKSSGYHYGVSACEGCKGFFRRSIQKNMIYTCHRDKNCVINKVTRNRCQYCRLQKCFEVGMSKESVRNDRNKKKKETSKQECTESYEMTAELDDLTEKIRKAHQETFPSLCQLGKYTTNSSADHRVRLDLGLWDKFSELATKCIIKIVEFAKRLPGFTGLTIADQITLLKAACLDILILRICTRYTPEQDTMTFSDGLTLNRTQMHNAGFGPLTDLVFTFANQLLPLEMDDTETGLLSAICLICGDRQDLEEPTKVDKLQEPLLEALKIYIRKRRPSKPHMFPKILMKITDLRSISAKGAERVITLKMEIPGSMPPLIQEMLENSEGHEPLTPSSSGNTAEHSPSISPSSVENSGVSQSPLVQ
Briefly: Inhibition of [3H]-ATRA binding to baculovirus expressed RAR beta receptor.

The term pKd denotes the negative decadic logarithm of the Kd, by convention in mol/L. As for `Cc1ccc(C2=CCC(C)(C)c3ccc(C(=O)Nc4ccc(C(=O)O)c(F)c4)cc32)cc1`, the pKd in test [1] was 8.24; in test [2], 6.06; in test [3], 6.21.

Take `Cc1ccc(C2=CCC(C)(C)c3ccc(C(=O)Nc4cc(F)c(C(=O)O)c(F)c4)cc32)cc1`: the negative-log Kd (pKd) was 7.49 in test [1], less than 4.52 in test [2] and 5.65 in test [3].

As for `Cc1ccc(C2=CC(C)(C)Oc3c(Br)cc(C(=O)Nc4ccc(C(=O)O)c(F)c4)cc32)cc1`, the negative logarithm of the Kd (pKd) in test [1] was 8.55; in test [2], 5.14; in test [3], 6.49.

Consider `Cc1ccc(C2=CC(C)(C)Oc3c(Br)cc(C(=O)Nc4cc(F)c(C(=O)O)c(F)c4)cc32)cc1`, for which the pKd was 8.82 in test [1], 4.97 in test [2] and 6.05 in test [3].

`Cc1ccc(C2=CCC(C)(C)c3ccc(C(=O)Nc4ccc(C(=O)O)cc4)cc32)cc1`: the results for the negative logarithm of the Kd (pKd) in test [1], in test [2] and in test [3] were 7.57, 5.51 and 5.99, respectively.
